Assay results taken from patent US10550101B2, “Crystalline forms of mesylate salt of pyridinyl amino pyrimidine derivative, preparation methods therefor, and applications thereof” (SHANGHAI ALLIST PHARMACEUTICAL AND MEDICAL TECHNOLOGY …, priority 2016, dated 2020).
Converted amounts (≈) assume the structure as drawn. Counter-ions that a name gives are not always drawn. Like-named read-outs stand apart in the source and are kept apart here. Each block holds one compound with its values, some of them ahead of it.

Legend:
[1] = Drug absorption experiment in SD rats, intragastric administration (incl. absolute bioavailability); assay type: in vivo, SD rats (Sprague Dawley rats); conditions: for bioavailability / F (absolute bioavailability): from AUC0-t after dosage calibration; for bioavailability: read-out: F (absolute bioavailability); for F (absolute bioavailability): intragastric 10 mg/kg vs intravenous 2.5 mg/kg
Protocol: The determination method for the absolute bioavailability of the intragastric administration of the crystal forms of the mesylate salt of the compound of formula (I) is as follows: • For intravenous administration: Healthy SD rats are randomly grouped. The tested substance is administered in a certain dosage D through the intravenous administration. The blood samples are collected through the retrobulbar venous plexus before the administration and 5 min, 15 min, 0.5 h, 1.0 h, 2.0 h, 4.0 h, 8.0 h, 12 h and 24 h after the administration, and separated to give plasmas. […] The tested substance is administered in a certain dosage D through the intragastric administration.
After dosage calibration, the absolute bioavailability F is calculated by the area under the drug concentration-time curve (AUC0-t). The calculation equation is as follows: F=(AUCintragastric×Dintravenous)/(AUCintravenous×Dintragastric)×100%.
For intragastric administration: 20 healthy (half male and half female) SD rats with 200-280 g body weight, provided by Shanghai Sippr-BK laboratory animal Co. Ltd., were assigned randomly to 5 groups.
After dosage calibration, the absolute bioavailability F was obtained by calculation of AUC0-t. The calculation equation was as follows: F=(AUCintragastric×Dintravenous)/(AUCintravenous×Dintragastric)×100%. The obtained absolute bioavailability F data are shown in the above table 2.

[2] = Drug absorption experiment in SD rats, intravenous administration; assay type: in vivo, SD rats (Sprague Dawley rats); conditions: for half-life / AUC(0-t) / Cmax: plasma
Protocol: The determination method for the absolute bioavailability of the intragastric administration of the crystal forms of the mesylate salt of the compound of formula (I) is as follows: • For intravenous administration: Healthy SD rats are randomly grouped. The tested substance is administered in a certain dosage D through the intravenous administration. The blood samples are collected through the retrobulbar venous plexus before the administration and 5 min, 15 min, 0.5 h, 1.0 h, 2.0 h, 4.0 h, 8.0 h, 12 h and 24 h after the administration, and separated to give plasmas. The concentration of the drug in plasma is determined with the liquid chromatography-tandem mass spectrometry method to give a drug concentration-time curve. • For intragastric administration: Healthy SD rats are randomly grouped. The tested substance is administered in a certain dosage D through the intragastric administration. The intravenous blood samples are collected through the rat's retrobulbar venous plexus before the administration and 0.5, 1.0, 2.0, 4.0, 6.0, 8.0, 10, 12 and 24 h after the administration, and separated to give plasmas. The concentration of the drug in plasma is determined with the liquid chromatography-tandem mass spectrometry method to give a drug concentration-time curve.
For intravenous administration: 20 healthy (half male and half female) SD rats with 200-280 g body weight, provided by Shanghai Sippr-BK laboratory animal Co. Ltd., were assigned randomly to 5 groups. […] 0.2 ml of the intravenous blood samples were collected through the rat's retrobulbar venous plexus before the administration and 5 min, 15 min, 0.5 h, 1.0 h, 2.0 h, 4.0 h, 8.0 h, 12 h and 24 h after the administration, and separated to give plasmas.
The concentration of the drug in plasma was determined with the liquid chromatography-tandem mass spectrometry method to give a drug concentration-time curve.
T1/2: elimination half-life; Cmax: maximum drug concentration in plasma; AUC0-t: area under drug concentration-time curve.

[3] = Solubility test under different pH buffering solutions; assay type: physicochemical; conditions: for Solubility: 24 h; for solubilities compared with the compound of formula (I) of Example 1: solvent pH values 1.0, 4.5 and 6.8, conclusion in words
Protocol: The solubilities of the crystal forms of the mesylate salt of the compound of formula (I) may be measured according to the following method: • Each substance is weighed in an appropriate amount and placed in a brown flask. Different solvents are added. The mixtures are ultrasonically treated for 20 seconds. After the mixtures are uniformly dispersed, the mixtures are shaked at 25° C., 200 rpm for 24 h, then removed, and separated by centrifugation at 12000 rpm for 10 mins. The supernatants are removed by suction and diluted to a certain fold with the corresponding solvent. Then, the concentrations of the resulting solutions are determined by HPLC and their pH values are measured.
The compound of formula (I) of Example 1, Form I of the mesylate salt of the compound of formula (I), and Form II of the mesylate salt of the compound of formula (I) were investigated for the solubilities under different pH buffering solutions.
Test method: Each substance was weighed in an appropriate amount and placed in a brown flask. Different solvents were added. The mixtures were ultrasonically treated for 20 seconds. After the mixtures were uniformly dispersed, the mixtures were shaked at 25° C., 200 rpm for 24 h, then removed, and separated by centrifugation at 12000 rpm for 10 mins. The supernatants were removed by suction and diluted to a certain folds with the corresponding solvent. Then, the concentrations of the resulting solutions were determined by HPLC and their pH values were measured.

[4] = Acetate buffering solution at pH = 4.5, 25° C.
[5] = Phosphate buffering solution at pH = 6.8, 25° C.
[6] = intragastric, dosage 10 mg/kg, plasma

- bioavailability ([1]; both sexes, Sprague-Dawley, rat, plasma, po, 6 mg/kg, intragastric 6 mg/kg vs intravenous 3.0 mg/kg): 8.9%
- half-life ([2]; both sexes, Sprague-Dawley, rat, iv, 3 mg/kg, dosage 3.0 mg/kg, elimination half-life): 2.72 h
- AUC(0-t) ([2]; both sexes, Sprague-Dawley, rat, iv, 3 mg/kg, dosage 3.0 mg/kg, read-out: AUC0-t): 438 ng·h/mL
- Cmax ([2]; both sexes, Sprague-Dawley, rat, iv, 3 mg/kg, dosage 3.0 mg/kg, read-out: Cmax): 328 ng/mL
Compound: C=CC(=O)Nc1cc(Nc2nccc(-c3cn(C)c4ccccc34)n2)c(OC(C)C)nc1N(C)CCN(C)C [Comparative Example 1, reference compound]

- bioavailability ([1]; both sexes, Sprague-Dawley, rat, plasma, po, 10 mg/kg, intragastric 10 mg/kg vs intravenous 4.0 mg/kg): 8.5%
- half-life ([2]; both sexes, Sprague-Dawley, rat, iv, 4 mg/kg, dosage 4.0 mg/kg, elimination half-life): 1.71 h
- AUC(0-t) ([2]; both sexes, Sprague-Dawley, rat, iv, 4 mg/kg, dosage 4.0 mg/kg, read-out: AUC0-t): 811 ng·h/mL
- Cmax ([2]; both sexes, Sprague-Dawley, rat, iv, 4 mg/kg, dosage 4.0 mg/kg, read-out: Cmax): 630 ng/mL
Compound: C=CC(=O)Nc1cc(Nc2ncc(Cl)c(-c3cn(C)c4ccccc34)n2)c(OC(C)C)nc1N(C)CCN(C)C [Comparative Example 2, reference compound]

- Solubility ([3]; 0.1N HCl, 25° C.): >30 mg/mL
- Solubility [3, 4]: 0.62 mg/mL (≈ 1090 µM)
- Solubility [3, 5]: 0.0003 mg/mL (≈ 0.528 µM)
Compound: C=CC(=O)Nc1cc(Nc2nccc(-c3cn(C)c4ccccc34)n2)c(OCC(F)(F)F)nc1N(C)CCN(C)C [Example 1, N-{2-{[2-(dimethylamino)ethyl](methyl)amino}-6-(2,2,2-trifluoroethoxy)-5-{[4-(1-methyl-1H-indol-3-yl)pyrimidin-2-yl]amino}pyridin-3-yl}acrylamide]

- Solubility ([3]; 0.1N HCl, 25° C.): >100 mg/mL
- Solubility [3, 4]: 29.05 mg/mL
- Solubility [3, 5]: 0.02 mg/mL
- solubilities compared with the compound of formula (I) of Example 1 [3]: remarkably better
- half-life ([1]; both sexes, Sprague-Dawley, rat, plasma, po, 10 mg/kg, intragastric, dosage 10 mg/kg, elimination half-life): 7.98 h
- AUC(0-t) ([1]; both sexes, Sprague-Dawley, rat, plasma, po, 10 mg/kg, intragastric, dosage 10 mg/kg, plasma, read-out: AUC0-t): 613 ng·h/mL
- Cmax ([1]; both sexes, Sprague-Dawley, rat, plasma, po, 10 mg/kg, intragastric, dosage 10 mg/kg, plasma, read-out: Cmax): 45.3 ng/mL
- F (absolute bioavailability) [1]: 49.8%
- half-life ([2]; both sexes, Sprague-Dawley, rat, iv, 2.5 mg/kg, dosage 2.5 mg/kg, elimination half-life): 4.73 h
- AUC(0-t) ([2]; both sexes, Sprague-Dawley, rat, iv, 2.5 mg/kg, dosage 2.5 mg/kg, read-out: AUC0-t): 308 ng·h/mL
- Cmax ([2]; both sexes, Sprague-Dawley, rat, iv, 2.5 mg/kg, dosage 2.5 mg/kg, read-out: Cmax): 105 ng/mL
Compound: C=CC(=O)Nc1cc(Nc2nccc(-c3cn(C)c4ccccc34)n2)c(OCC(F)(F)F)nc1N(C)CCN(C)C [Form I, Form I of the Mesylate Salt of N-{2-{[2-(dimethylamino)ethyl](methyl)amino}-6-(2,2,2-trifluoroethoxy)-5-{[4-(1-methyl-1H-indol-3-yl)pyrimidin-2-yl]amino}pyridin-3-yl}acrylamide]

- Solubility ([3]; 0.1N HCl, 25° C.): >100 mg/mL
- Solubility [3, 4]: 61.14 mg/mL
- Solubility [3, 5]: 0.02 mg/mL
- solubilities compared with the compound of formula (I) of Example 1 [3]: remarkably better
- F (absolute bioavailability) [1]: 39.1%
- AUC(0-t) [1, 6]: 566.3 ng·h/mL
- Cmax [1, 6]: 36.7 ng/mL
- T1/2 ([2]; dosage 2.5 mg/kg, elimination half-life): 4.83 h
- AUC(0-t) ([2]; dosage 2.5 mg/kg): 362.0 ng·h/mL
- Cmax ([2]; dosage 2.5 mg/kg): 125.4 ng/mL
Compound: C=CC(=O)Nc1cc(Nc2nccc(-c3cn(C)c4ccccc34)n2)c(OCC(F)(F)F)nc1N(C)CCN(C)C [Form II, Form II of the Mesylate Salt of N-{2-{[2-(dimethylamino)ethyl](methyl)amino}-6-(2,2,2-trifluoroethoxy)-5-{[4-(1-methyl-1H-indol-3-yl)pyrimidin-2-yl]amino}pyridin-3-yl}acrylamide]
